Measurements reported in patent US6040320A, “2-substituted imidazoles useful in the treatment of inflammatory diseases” (Ortho-McNeil Pharmaceutical, Inc., priority 1998, dated 2000).
pIC50: −log10 of the molar value. Where two headings read alike, the source gives them in different places.

Assays:
TNF-α = assay: in vitro whole cell assay: LPS-stimulated TNF-α production in PBMC (ELISA); assay type: cell-based, human; settings: read-out: TNF-α IC50
Experimental: In addition to the enzyme assay, the compounds of the invention were tested in an in vitro whole cell assay using peripheral blood mononuclear cells ("PBMC") which were obtained from human blood as follows. Freshly obtained venous blood was anticoagulated with heparin, diluted with an equal volume of phosphate buffered saline ("PBS") and placed in a sterile tube or other container. Aliquots (30 mL) of this mixture were transferred to centrifuge tubes which were underlaid with Ficoll-Hypaque (15 mL). The prepared tubes were centrifuged at 400×g without braking for 30 min at room temperature. Approximately 1/2 to 2/3 of the platelet layer above the mononuclear cell band was removed with a pipet. The majority of the mononuclear cell layer was carefully removed using a pipet and these PBMCs were diluted with PBS and spun at 600×g for 15 min. The resulting PBMCs were washed with another portion of PBS and spun at 400×g for 10 min at room temperature. The recovered pellets were diluted in low endotoxin RPMI/1% FCS culture medium and gave a cell concentration of 0.5-2.0 X 10^6 PMBC/mL. A small volume of the suspension was removed for counting on a hemocytometer and the remaining preparation was centrifuged at 200×g for 15 min at room temperature. The recovered pelleted PMBC were resuspended in RPMI/1% FCS to a concentration of 1.67×10^6 /mL.
To run the assay, the PBMC suspension (180 μL) was transferred to duplicate wells of a 96-well flat-bottom microtiter plate and incubated for 1 h at 37° C. A solution of test compound (10 μL: prepared at 20×the desired final concentration) was added to each well and the plate was incubated for 1 h at 37° C. A solution (10 μL) of LPS in RPMI/1% FCS (200 ng/mL) was added and the wells were incubated overnight at 37° C. The supernate (100 μL) was removed from each well and diluted with RPMI/1% FCS (400 μL). The samples were analyzed for TNF-α using a commercial ELISA kit (Genzyme). […] Since imidazoles which are unsubstituted at the 1-position are subject to tautomerization, the substituents listed for R1 and R2 are interchangeable when R3 is hydrogen.

p38 = biological target: T1, p38 (Homo sapiens, UniProt Q16539); assay: in vitro inhibition of p38 (CPSB): purified recombinant 6xHis-p38, myelin basic protein substrate, 33P-ATP; assay type: biochemical
T1 construct: 6xHis (N); made in house; host or cells: E. coli
T1 sequence (Q16539 whole entry): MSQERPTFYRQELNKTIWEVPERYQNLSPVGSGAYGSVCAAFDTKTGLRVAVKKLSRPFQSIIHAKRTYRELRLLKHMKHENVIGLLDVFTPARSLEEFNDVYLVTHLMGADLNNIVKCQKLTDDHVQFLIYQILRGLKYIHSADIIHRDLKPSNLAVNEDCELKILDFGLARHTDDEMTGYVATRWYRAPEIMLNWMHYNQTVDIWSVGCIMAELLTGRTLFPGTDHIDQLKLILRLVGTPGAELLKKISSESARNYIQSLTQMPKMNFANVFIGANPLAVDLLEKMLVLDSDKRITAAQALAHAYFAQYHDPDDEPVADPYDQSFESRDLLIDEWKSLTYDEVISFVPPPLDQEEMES
Experimental: Compounds of the invention were measured for their ability to inhibit the activity of p38 by the following in vitro assay.
A solution (38 μL) of purified recombinant p38 (where the amount of enzyme was determined empirically considering the linear range of the assay and the acceptable signal to noise ratio; 6xHis-p38 expressed in E.coli), myelin basic protein substrate (also determined empirically), a buffer of pH 7.5 (Hepes:25 mM, MgCl2 :10 mM, MnCl2 :10 mM) were added to 92 wells of a 96-well round bottom polypropylene plate. The remaining wells were used for control ("CTRL") and background ("BKG"). The CTRL was prepared with the enzyme, substrate buffer and 2% DMSO, and the BKG was prepared with substrate buffer and 2% DMSO. A solution (12 μL) of the test compound in DMSO (compounds were diluted to 125 μM in 10% DMSO/H2 O and assayed at 25 μM where the final DMSO concentration was 2%) was added to the testing wells. The ATP/^33 P-ATP solution (10 μL: containing 50 μM unlabeled ATP and 1 μCi ^33 P-ATP) was added to all wells and the completed plates were mixed and incubated at 30° C. for 30 min. Icecold 50% TCA/10 mM sodium phosphate (60 μL) were added to each well and the plates were kept on ice for 15 min. The contents of each well were transferred to the wells of a 96-well filterplate (Millipore, MultiScreen-DP) and the filterplate was placed on a vacuum manifold, fitted with a waste collection tray. The wells were washed five times with 10% TCA/10 mM sodium phosphate (200 μL) under vacuum. MicroScint-20 scintillant was added, the plates were sealed using Topseal-S sheets and counted in a Packard TopCount scintillation counter using a ^33 P liquid program with color quench correction, where the output is in color quench-corrected cpm. The % inhibition of the test compounds was calculated by the following formula: % inhibition=[1-(sample-BKG)/(CTRL-BKG)]×100.
Although compounds were initially tested at 25 μM, if warranted the compounds were tested at 4-fold increments above and below that concentration. In addition, lC50 s were calculated for some compounds using the Deltagraph 4-parameter curve fitting program.

pIC50 (TNF-α; human PBMC, LPS) | Structure (SMILES) | also measured
6.82 | CS(=O)(=O)NCCCSc1nc(-c2ccc(F)cc2)c(-c2ccncc2)[nH]1 [Compound 32] | –
6.82 | CC(=O)OCCCCc1nc(-c2ccc(F)cc2)c(-c2ccncc2)n1CCCN1C(=O)c2ccccc2C1=O [Compound 50] | –
– | Fc1ccc(-c2[nH]c(S)nc2-c2ccncc2)cc1 [Compound 21] | pIC50 (p38): 5.72
– | CC(=O)OCCCCc1nc(-c2ccc(F)cc2)c(-c2ccncc2)n1COCC[Si](C)(C)C [Compound 44] | pIC50 (TNF-α; Homo sapiens, PBMC): 6.82
– | CCCSc1nc(-c2ccncc2)c(-c2ccc(F)cc2)[nH]1 [Compound 1, 5(4)-(4-Fluorophenyl)2-(1-propyl)thio-4(5)-(4-pyridyl)-5(4)-imidazole] | pIC50 (p38): 6.17
– | CCSc1nc(-c2ccncc2)c(-c2ccc(F)cc2)[nH]1 [Compound 39] | pIC50 (p38): 6.40
6.55 | O=C1c2ccccc2C(=O)N1CCCCc1nc(-c2ccncc2)c(-c2ccc(F)cc2)[nH]1 [Compound 47] | –
7.12 | COCc1nc(-c2ccc(F)cc2)c(-c2ccncc2)n1CCCN1C(=O)c2ccccc2C1=O [Compound 58] | –
7.00 | Cc1nc(-c2ccncc2)c(-c2ccc(F)cc2)n1CCCc1ccccc1 [Compound 69] | –
7.10 | OCCSCc1nc(-c2ccncc2)c(-c2ccc(F)cc2)[nH]1 [Compound 13, 5-(4-Fluorophenyl)-2-[4-hydroxy-2-thiabut-1-yl]4-(4-pyridyl)-imidazole] | –
7.41 | O=C1c2ccccc2C(=O)N1CCCn1cnc(-c2ccc(F)cc2)c1-c1ccncc1 [Compound 71] | –
6.70 | CC(=O)NCCCSc1nc(-c2ccc(F)cc2)c(-c2ccncc2)[nH]1 [Compound 34] | –
7.70 | CCc1nc(-c2ccncc2)c(-c2ccc(F)cc2)n1CCCN1C(=O)c2ccccc2C1=O [Compound 65] | –
6.70 | O=C1c2ccccc2C(=O)N1CCSCc1nc(-c2ccc(F)cc2)c(-c2ccncc2)[nH]1 [Compound 33] | –
– | CCCCSc1nc(-c2ccncc2)c(-c2ccc(F)cc2)[nH]1 [Compound 40] | pIC50 (p38): 6.15 to 6.55
– | NCCCSc1nc(-c2ccc(F)cc2)c(-c2ccncc2)[nH]1 [Compound 3, 2-(3-Aminoprop-1-yl)thio-5(4)-(4-fluorophenyl)4(5)-(4-pyridyl)-imidazole] | CPSB % inhibition (p38; @ 20 μm): 26%
6.40 | COCc1nc(-c2ccncc2)c(-c2ccc(F)cc2)n1CCCN1C(=O)c2ccccc2C1=O [Compound 60] | –
6.70 | CCC(=O)Cn1cnc(-c2ccc(F)cc2)c1-c1ccncc1 [Compound 80] | –
8.52 | Fc1ccc(-c2nc(I)n(CCCc3ccccc3)c2-c2ccncc2)cc1 [Compound 75] | –
5.76 | O=C1c2ccccc2C(=O)N1CCCCc1nc(-c2ccc(F)cc2)c(-c2ccncc2)n1Cc1ccccc1 [Compound 48] | –
– | N#CCSc1nc(-c2ccncc2)c(-c2ccc(F)cc2)[nH]1 [Compound 38] | pIC50 (p38): 6.40
– | CC(=O)OCCCCc1nc(-c2ccncc2)c(-c2ccc(F)cc2)[nH]1 [Compound 16a, 4-[5(4)-(4-Fluorophenyl)-(5)-(4-pyridyl)imidazol-2-yl]butayl acetate] | pIC50 (p38): 5.85
– | C[Si](C)(C)CCOCn1c(CO)nc(-c2ccncc2)c1-c1ccc(F)cc1 [Compound 36] | CPSB % inhibition (p38; @ 5 μm): 6%
6.70 | CCOCCc1nc(-c2ccc(F)cc2)c(-c2ccncc2)n1CCCN1C(=O)c2ccccc2C1=O [Compound 61] | –
– | C[Si](C)(C)CCOCn1c(C(=O)CCCO)nc(-c2ccncc2)c1-c1ccc(F)cc1 [Compound 9, 4-Hydroxy-1-[5-(4-fluorophenyl)-4-(4-pyridyl)-1-(2-(trimethylsilyl)ethoxymethyl)imidazol-2-yl]butanone] | pIC50 (TNF-α; Homo sapiens, PBMC): < 5.00
6.60 | OCc1nc(-c2ccc(F)cc2)c(-c2ccncc2)[nH]1 [Compound 49] | –
7.52 | CCCSCc1nc(-c2ccc(F)cc2)c(-c2ccncc2)[nH]1 [Compound 35] | –
7.40 | Fc1ccc(-c2ncn(CCOc3ccccc3)c2-c2ccncc2)cc1 [Compound 86] | –

pIC50 (TNF-α; human PBMC, LPS) | Structure (SMILES) | also measured
6.10 | O=C1c2ccccc2C(=O)N1CCCCn1c(I)nc(-c2ccncc2)c1-c1ccc(F)cc1 [Compound 76] | –
– | CC(=O)OCCCCc1nc(-c2ccncc2)c(-c2ccc(F)cc2)n1Cc1ccccc1 [Compound 42] | CPSB % inhibition (p38; @ 5 μm): 2%
6.44 | Cc1nc(-c2ccc(F)cc2)c(-c2ccncc2)n1CCCN1C(=O)c2ccccc2C1=O [Compound 62] | –
6.76 | O=C1c2ccccc2C(=O)N1CCCOCc1nc(-c2ccc(F)cc2)c(-c2ccncc2)n1CCCN1C(=O)c2ccccc2C1=O [Compound 53] | –
6.30 | O=C1c2ccccc2C(=O)N1CCCCn1cnc(-c2ccc(F)cc2)c1-c1ccncc1 [Compound 73] | –
7.77 | Cc1nc(-c2ccncc2)c(-c2ccc(F)cc2)n1CCCN1C(=O)c2ccccc2C1=O [Compound 63] | –
8.22 | CCc1nc(-c2ccc(F)cc2)c(-c2ccncc2)n1CCCc1ccccc1 [Compound 66] | –
5.90 | O=C1c2ccccc2C(=O)N1CCCn1c(CO)nc(-c2ccncc2)c1-c1ccc(F)cc1 [Compound 55] | –
8.82 | Cc1nc(-c2ccc(F)cc2)c(-c2ccncc2)n1CCCc1ccccc1 [Compound 68] | –
8.00 | Fc1ccc(-c2ncn(CCCc3ccncc3)c2-c2ccncc2)cc1 [Compound 84] | –
6.70 | O=C1c2ccccc2C(=O)N1CCCOCc1nc(-c2ccncc2)c(-c2ccc(F)cc2)n1CCCN1C(=O)c2ccccc2C1=O [Compound 54] | –
6.70 | O=C1c2ccccc2C(=O)N1CCCn1c(CCCCO)nc(-c2ccncc2)c1-c1ccc(F)cc1 [Compound 52] | –
6.30 | Fc1ccc(-c2c(-c3ccncc3)ncn2CCCc2cccnc2)cc1 [Compound 81] | –
7.10 | CCc1nc(-c2ccc(F)cc2)c(-c2ccncc2)n1CCCN1C(=O)c2ccccc2C1=O [Compound 64] | –
6.35 | O=C1c2ccccc2C(=O)N1CCCCn1c(I)nc(-c2ccc(F)cc2)c1-c1ccncc1 [Compound 77] | –
6.52 | CCc1nc(-c2ccncc2)c(-c2ccc(F)cc2)n1CCCc1ccccc1 [Compound 67] | –
5.70 | Fc1ccc(-c2c(-c3ccncc3)ncn2CCOc2ccccc2)cc1 [Compound 85] | –
6.22 | CCC(=O)Cn1cnc(-c2ccncc2)c1-c1ccc(F)cc1 [Compound 79] | –
6.52 | O=C1c2ccccc2C(=O)N1CCCCn1cnc(-c2ccncc2)c1-c1ccc(F)cc1 [Compound 72] | –
7.70 | Fc1ccc(-c2ncn(CCCc3cccnc3)c2-c2ccncc2)cc1 [Compound 82] | –
6.76 | O=C1c2ccccc2C(=O)N1CCCn1c(CCCCO)nc(-c2ccc(F)cc2)c1-c1ccncc1 [Compound 51] | –
6.00 | Fc1ccc(-c2c(-c3ccncc3)ncn2CCCc2ccncc2)cc1 [Compound 83] | –
6.56 | O=C(NCCCSc1nc(-c2ccc(F)cc2)c(-c2ccncc2)[nH]1)c1ccc2ccccc2c1 [Compound 31] | –
6.35 | CCCCc1cc(-c2c(-c3ccc(F)cc3)nc(CO)n2CCCc2ccccc2)ccn1 [Compound 78] | –
6.30 | O=C1c2ccccc2C(=O)N1CCCn1cnc(-c2ccncc2)c1-c1ccc(F)cc1 [Compound 70] | –
< 5.00 | CCCCCCCCCCSc1nc(-c2ccc(F)cc2)c(-c2ccncc2)[nH]1 [Compound 41] | –
6.70 | Fc1ccc(-c2nc(Br)n(CCCc3ccccc3)c2-c2ccncc2)cc1 [Compound 74] | –

Structure (SMILES) | pIC50 (TNF-α; human PBMC, LPS) | also measured
CCCS(=O)(=O)Cc1nc(-c2ccncc2)c(-c2ccc(F)cc2)n1COCC[Si](C)(C)C [Compound 57] | 5.30 | –
